Measured values taken from ChEMBL document CHEMBL1201862, “PubChem BioAssay data set” (2004).
Calls of active or inactive are those of the source.

Columns and labels:
[1] = biological target: Dual specificity protein phosphatase 3 (Homo sapiens, UniProt P51452); test: inhibition constants for human DUSP3 – biochemical, colorimetric, SAR follow-up (AID 2004)
[2] = Trypanosoma cruzi growth suppression in host cells – NIH3T3 host cells, beta-gal luminescence, confirmation (AID 2044); type: functional, cell-based;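 further: intracellular parasites grown in NIH/3T3 mouse fibroblasts as host cells; luminescent beta-galactosidase reporter signal from transgenic T. cruzi replicating inside host cells; inhibitors lower the luminescence signal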
[3] = microbe, parasite or virus in culture; type: functional; conditions: Mycobacterium tuberculosis
[4] = NIH3T3 cell viability loss – ATP luminescence, mouse fibroblasts, counter-screen, dose response (AID 2010); type: functional, cell-based;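 further: cells exposed to compound for about 90 hours before reading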
Interleukin-8 [5] = biological target: T1, Interleukin-8 (Homo sapiens, UniProt P10145); test: SAR analysis of Tumor necrosis factor alpha (TNF-alpha) induced IL-8 secretion in MCF-7/NOD1 cells - Set 2. [Related pubchem assays (depositor defined):AID1575, AID2250, AID2260]; type: functional, cell-based
T1 sequence (P10145 whole entry): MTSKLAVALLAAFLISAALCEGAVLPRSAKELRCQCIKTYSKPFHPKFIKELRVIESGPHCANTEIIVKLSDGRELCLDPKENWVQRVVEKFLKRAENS

Interleukin-8 [6] = biological target: T1, Interleukin-8; test: SAR analysis of GM-Tri-DAP induced IL-8 secretion in MCF-7/NOD1 cells - Set 2. [Related pubchem assays (depositor defined):AID1575, AID1578, AID2333]; type: functional, cell-based
Tumor necrosis factor = Tumor necrosis factor (Homo sapiens, UniProt P01375); test: analog potency on TNFa NF-kB signaling – cell-based, revised, SAR follow-up (AID 2337); type: functional
[7] = THP-1 cell cytotoxicity, dose response, cytotoxicity control for non-replicating M. tuberculosis project (AID 489025); type: functional
[8] = biological target: Nucleotide-binding oligomerization domain-containing protein 1 (Homo sapiens, UniProt Q9Y239); test: blockers of NOD1 pathway activity – revised, SAR follow-up (AID 2333); type: functional
[9] = HepG2 cell cytotoxicity, dose response, cytotoxicity control for non-replicating M. tuberculosis project (AID 489018); type: functional; conditions: Mycobacterium tuberculosis
[10] = Vero E6 cell cytotoxicity, dose response, cytotoxicity control for non-replicating M. tuberculosis project, secondary assay (AID 492998); type: functional, VeroE6; conditions: Vero C1008
[11] = biological target: Nucleotide-binding oligomerization domain-containing protein 2 (Homo sapiens, UniProt Q9HC29); test: PubChem AID 2334; type: functional
cells [12] = type: functional
HEK293 [13] = test: cells; conditions: Homo sapiens
[14] = biological target: T2, Neuropeptides B/W receptor type 1 (Homo sapiens, UniProt P48145); test: Fluorescence-based dose response cell-based high throughput screening assay to identify antagonists of the G-protein coupled receptor 7 (GPR7). [Related pubchem assays: 1952 (Screening assay (GPR7 antagonists).), 1880 (Summary AID.)]; type: functional
T2 sequence (P48145 whole entry): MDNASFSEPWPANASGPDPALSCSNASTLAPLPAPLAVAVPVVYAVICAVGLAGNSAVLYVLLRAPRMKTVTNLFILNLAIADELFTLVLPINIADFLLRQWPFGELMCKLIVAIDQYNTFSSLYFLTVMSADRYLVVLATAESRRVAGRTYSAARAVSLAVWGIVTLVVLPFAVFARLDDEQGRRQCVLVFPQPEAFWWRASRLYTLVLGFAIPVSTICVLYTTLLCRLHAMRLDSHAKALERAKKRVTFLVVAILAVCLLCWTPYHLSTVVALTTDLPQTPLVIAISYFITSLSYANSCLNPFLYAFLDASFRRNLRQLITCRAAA

[15] = biological target: Melanin-concentrating hormone receptor 1 (Homo sapiens, UniProt Q99705); test: Fluorescence-based counterscreen for antagonists of the G-protein coupled receptor 7 (GPR7): cell-based high throughput dose response assay to identify antagonists of the melanin-concentrating hormone receptor 1 (MCHR1).; type: functional
Bcl-2-like protein 10 = biological target: T3, Bcl-2-like protein 10 (Homo sapiens, UniProt Q9HD36); test: Bcl-B/TR3 peptide binding disruption – biochemical, fluorescence polarization, FITC-TR3 peptide, selectivity assay for Bfl-1 inhibitor project, primary screen (AID 748);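 further: fluorescence polarization from a fluorescein-labelled TR3 peptide binding purified Bcl-B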
T3 sequence (Q9HD36 whole entry): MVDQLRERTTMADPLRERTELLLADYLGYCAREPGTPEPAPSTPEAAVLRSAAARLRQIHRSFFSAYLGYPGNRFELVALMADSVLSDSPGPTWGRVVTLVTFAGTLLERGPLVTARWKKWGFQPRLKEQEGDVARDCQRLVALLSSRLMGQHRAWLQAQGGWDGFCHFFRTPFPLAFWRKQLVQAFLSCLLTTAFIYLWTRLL

HEK293 [16] = test: PMA/Ionomycin induced NF-kB luciferase assay in 293- NF-kB-Luc stable cells. [Related pubchem assays: 1299, 1270, 1295, 1375, 1287, 1281, 1293, 1291, 1289, 1280, 465, 1364, 1282, 1372, 1365, 1370, 1367, 1366, 1269, 1373, 1292, 1290, 1302, 1371, 1283, 1271, 1294, 1374, 1368, 1369 ]; type: functional, cell-based; conditions: Homo sapiens
[17] = biological target: T4, Luciferin 4-monooxygenase (Photinus pyralis, UniProt P08659); test: In vitro luciferase assay using purified luciferase. [Related pubchem assays: 1299, 1270, 1295, 1375, 1287, 1281, 1293, 1291, 1289, 1280, 465, 1364, 1282, 1372, 1365, 1370, 1367, 1366, 1266, 1373, 1292, 1290, 1302, 1371, 1283, 1271, 1294, 1374, 1368, 1369 ]
HEK293 [18] = test: Cytotoxicity assay in HEK293 cells. [Related pubchem assays (depositor defined):AID1266, AID1269, AID1270, AID1271, AID1280, AID1281, AID1282, AID1283, AID1287, AID1289, AID1290, AID1291, AID1292, AID1293, AID1294, AID1295, AID1299, AID1302, AID1364, AID1365, AID1366, AID1367, AID1369, AID1370, AID1371, AID1372, AID1373, AID1374, AID1375, AID1384 …; type: functional, cell-based; conditions: Homo sapiens
HEK293 [19] = test: TNF Induced NF-kB Luciferase in 293-NF-kB-Luc Stable Cells. [Related pubchem assays: 1266, 1299, 1269, 1373, 1292, 1290, 1302, 1371, 1283, 1270, 1295, 1271, 1375, 1294, 1374, 1281, 1293, 1291, 1289, 1280, 465, 1368, 1364, 1282, 1372, 1365, 1369, 1370, 1367, 1366 ]; type: functional, cell-based; conditions: Homo sapiens
Beta-galactosidase = Beta-galactosidase (Escherichia coli, UniProt Q8VNN2); test: detection-enzyme interference by beta-gal modulators – biochemical, E. coli enzyme, set 3, artefact control for CCR6 antagonist project, dose response (AID 504712); type: functional
Hexokinase HKDC1 = Hexokinase HKDC1 (Homo sapiens, UniProt Q2TB90); test: inhibition of HKDC1 glucose phosphorylation – biochemical, W721R variant, dose response (AID 504729); type: functional
Genome polyprotein = Genome polyprotein (dengue virus type 2, UniProt P29990); test: flavivirus cap methylation enzyme inhibition – biochemical, confirmation dose response, primary screen (AID 588689); type: functional
[20] = Fluorescence-based cell-based high throughput dose response assay for inhibitors of the interaction of nucleotide-binding oligomerization domain containing 2 (NOD2) and the receptor-interacting serine-threonine kinase 2 (RIPK2).; type: functional; conditions: Homo sapiens
Beta Lactamase = Beta Lactamase (Pseudomonas aeruginosa, UniProt Q932Y6); test: BLA reporter interference, concentration series – BLA reporter cells, FRET fluorescence, artefact control for NOD2-RIPK2 interaction inhibitor project, dose response (AID 651552); type: functional, cell-based
[21] = viability loss in THP-1 monocytes – THP-1 cells, cytotoxicity control for Vif-APOBEC3G degradation inhibitor project, dose response (AID 1117359); type: functional; conditions: THP-1
[22] = biological target: Acylamino-acid-releasing enzyme (Homo sapiens, UniProt P13798); test: endogenous PME-1 and serine hydrolase inhibition – cell lysate, mouse brain cytosol, FP-rhodamine, gel ABPP, selectivity assay for PME-1 inhibitor project, dose response, panel member APEH Assay Panel member description: Inhibition of N-acylaminoacyl-peptide hydrolase (APEH) (anti-target) (AID 2366)
[23] = biological target: T5, Voltage-gated N-type calcium channel alpha-1B subunit/Amyloid beta A4 precursor protein-binding family A member 1 (Homo sapiens, UniProt Q00975+Q02410); test: disruptors of Mint-PDZ/N-type channel peptide interaction – biochemical, HTRF, set 2, SAR follow-up (AID 434980); type: functional
[24] = biological target: T5, Voltage-gated N-type calcium channel alpha-1B subunit/Amyloid beta A4 precursor protein-binding family A member 1; test: disruptors of Mint-PDZ/N-type channel peptide interaction – biochemical, HTRF, SAR follow-up (AID 2489); type: functional
[25] = biological target: T2, Neuropeptides B/W receptor type 1; test: human NPBW1 receptor blockade, IC50 – cell-based, fluorescence, dose response, late-stage follow-up (AID 463251); type: functional
[26] = biological target: T4, Luciferin 4-monooxygenase; test: inhibition of purified Photinus pyralis luciferase – biochemical, luminescence, dose response (AID 1891)
[27] = Luminescence Cell-Based Dose Confirmation HTS to Identify Inhibitors of Platelet Dense Granule Release. [Related pubchem assays: 1663 (Primary HTS), 1678 (Summary of Project)]; type: functional
[28] = biological target: Induced myeloid leukemia cell differentiation protein Mcl-1 (Homo sapiens, UniProt Q07820); type: functional
[29] = biological target: NACHT, LRR and PYD domains-containing protein 3 (Homo sapiens, UniProt Q96P20); test: NALP3 inhibitors in yeast, dose response, luminescent (AID 488799); type: functional
[30] = biological target: Neurotensin receptor type 1 (Homo sapiens, UniProt P30989); type: functional;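 further: Image-based confirmatory dose-response assay measuring agonist activity at NTR1; NTR1-expressing U2OS osteosarcoma cells imaged for beta-arrestin GFP spot formation; agonist potency where compounds increase beta-arrestin recruitment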
[31] = biological target: T6, Oxysterols receptor LXR-beta (Homo sapiens, UniProt P55055); type: functional, cell-based;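 further: Cell-based luminescence dose-response assay of agonist activity at LXR, run as a confirmatory counterscreen to a daf-12 agonist screen; HEK293 cells with Gal4-LXR fusion and GAL4-driven luciferase reporter; agonist potency from rising luciferase signal of a Gal4-LXR reporter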
T6 sequence (P55055 whole entry): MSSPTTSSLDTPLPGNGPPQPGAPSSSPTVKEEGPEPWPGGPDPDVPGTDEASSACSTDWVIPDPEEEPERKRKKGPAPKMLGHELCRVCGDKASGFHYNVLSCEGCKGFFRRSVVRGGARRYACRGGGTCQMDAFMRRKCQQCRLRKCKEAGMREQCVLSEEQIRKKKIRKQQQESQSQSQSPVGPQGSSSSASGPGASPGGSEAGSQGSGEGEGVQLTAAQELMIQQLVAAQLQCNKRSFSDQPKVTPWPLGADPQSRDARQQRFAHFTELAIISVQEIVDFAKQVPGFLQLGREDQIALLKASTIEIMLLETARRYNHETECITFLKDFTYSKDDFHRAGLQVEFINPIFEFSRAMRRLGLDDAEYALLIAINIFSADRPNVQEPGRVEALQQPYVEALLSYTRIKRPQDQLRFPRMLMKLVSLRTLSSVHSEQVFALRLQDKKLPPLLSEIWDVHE

cells [32] = test: cells

T4 sequence (P08659 whole entry): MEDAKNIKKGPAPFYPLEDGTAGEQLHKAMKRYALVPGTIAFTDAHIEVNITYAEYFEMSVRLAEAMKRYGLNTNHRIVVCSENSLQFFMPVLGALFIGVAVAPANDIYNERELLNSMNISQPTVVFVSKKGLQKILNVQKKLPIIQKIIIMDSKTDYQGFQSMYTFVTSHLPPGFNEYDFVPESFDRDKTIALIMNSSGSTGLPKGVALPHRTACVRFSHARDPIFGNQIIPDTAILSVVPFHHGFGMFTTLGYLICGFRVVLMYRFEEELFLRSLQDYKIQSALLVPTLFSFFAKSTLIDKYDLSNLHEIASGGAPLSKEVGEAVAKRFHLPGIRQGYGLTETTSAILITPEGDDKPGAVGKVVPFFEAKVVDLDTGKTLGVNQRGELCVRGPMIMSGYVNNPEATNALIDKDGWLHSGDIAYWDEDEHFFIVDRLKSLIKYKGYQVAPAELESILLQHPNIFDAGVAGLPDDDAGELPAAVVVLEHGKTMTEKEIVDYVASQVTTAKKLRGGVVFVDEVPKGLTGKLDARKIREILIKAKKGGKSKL
T5 sequence (Q00975 whole entry): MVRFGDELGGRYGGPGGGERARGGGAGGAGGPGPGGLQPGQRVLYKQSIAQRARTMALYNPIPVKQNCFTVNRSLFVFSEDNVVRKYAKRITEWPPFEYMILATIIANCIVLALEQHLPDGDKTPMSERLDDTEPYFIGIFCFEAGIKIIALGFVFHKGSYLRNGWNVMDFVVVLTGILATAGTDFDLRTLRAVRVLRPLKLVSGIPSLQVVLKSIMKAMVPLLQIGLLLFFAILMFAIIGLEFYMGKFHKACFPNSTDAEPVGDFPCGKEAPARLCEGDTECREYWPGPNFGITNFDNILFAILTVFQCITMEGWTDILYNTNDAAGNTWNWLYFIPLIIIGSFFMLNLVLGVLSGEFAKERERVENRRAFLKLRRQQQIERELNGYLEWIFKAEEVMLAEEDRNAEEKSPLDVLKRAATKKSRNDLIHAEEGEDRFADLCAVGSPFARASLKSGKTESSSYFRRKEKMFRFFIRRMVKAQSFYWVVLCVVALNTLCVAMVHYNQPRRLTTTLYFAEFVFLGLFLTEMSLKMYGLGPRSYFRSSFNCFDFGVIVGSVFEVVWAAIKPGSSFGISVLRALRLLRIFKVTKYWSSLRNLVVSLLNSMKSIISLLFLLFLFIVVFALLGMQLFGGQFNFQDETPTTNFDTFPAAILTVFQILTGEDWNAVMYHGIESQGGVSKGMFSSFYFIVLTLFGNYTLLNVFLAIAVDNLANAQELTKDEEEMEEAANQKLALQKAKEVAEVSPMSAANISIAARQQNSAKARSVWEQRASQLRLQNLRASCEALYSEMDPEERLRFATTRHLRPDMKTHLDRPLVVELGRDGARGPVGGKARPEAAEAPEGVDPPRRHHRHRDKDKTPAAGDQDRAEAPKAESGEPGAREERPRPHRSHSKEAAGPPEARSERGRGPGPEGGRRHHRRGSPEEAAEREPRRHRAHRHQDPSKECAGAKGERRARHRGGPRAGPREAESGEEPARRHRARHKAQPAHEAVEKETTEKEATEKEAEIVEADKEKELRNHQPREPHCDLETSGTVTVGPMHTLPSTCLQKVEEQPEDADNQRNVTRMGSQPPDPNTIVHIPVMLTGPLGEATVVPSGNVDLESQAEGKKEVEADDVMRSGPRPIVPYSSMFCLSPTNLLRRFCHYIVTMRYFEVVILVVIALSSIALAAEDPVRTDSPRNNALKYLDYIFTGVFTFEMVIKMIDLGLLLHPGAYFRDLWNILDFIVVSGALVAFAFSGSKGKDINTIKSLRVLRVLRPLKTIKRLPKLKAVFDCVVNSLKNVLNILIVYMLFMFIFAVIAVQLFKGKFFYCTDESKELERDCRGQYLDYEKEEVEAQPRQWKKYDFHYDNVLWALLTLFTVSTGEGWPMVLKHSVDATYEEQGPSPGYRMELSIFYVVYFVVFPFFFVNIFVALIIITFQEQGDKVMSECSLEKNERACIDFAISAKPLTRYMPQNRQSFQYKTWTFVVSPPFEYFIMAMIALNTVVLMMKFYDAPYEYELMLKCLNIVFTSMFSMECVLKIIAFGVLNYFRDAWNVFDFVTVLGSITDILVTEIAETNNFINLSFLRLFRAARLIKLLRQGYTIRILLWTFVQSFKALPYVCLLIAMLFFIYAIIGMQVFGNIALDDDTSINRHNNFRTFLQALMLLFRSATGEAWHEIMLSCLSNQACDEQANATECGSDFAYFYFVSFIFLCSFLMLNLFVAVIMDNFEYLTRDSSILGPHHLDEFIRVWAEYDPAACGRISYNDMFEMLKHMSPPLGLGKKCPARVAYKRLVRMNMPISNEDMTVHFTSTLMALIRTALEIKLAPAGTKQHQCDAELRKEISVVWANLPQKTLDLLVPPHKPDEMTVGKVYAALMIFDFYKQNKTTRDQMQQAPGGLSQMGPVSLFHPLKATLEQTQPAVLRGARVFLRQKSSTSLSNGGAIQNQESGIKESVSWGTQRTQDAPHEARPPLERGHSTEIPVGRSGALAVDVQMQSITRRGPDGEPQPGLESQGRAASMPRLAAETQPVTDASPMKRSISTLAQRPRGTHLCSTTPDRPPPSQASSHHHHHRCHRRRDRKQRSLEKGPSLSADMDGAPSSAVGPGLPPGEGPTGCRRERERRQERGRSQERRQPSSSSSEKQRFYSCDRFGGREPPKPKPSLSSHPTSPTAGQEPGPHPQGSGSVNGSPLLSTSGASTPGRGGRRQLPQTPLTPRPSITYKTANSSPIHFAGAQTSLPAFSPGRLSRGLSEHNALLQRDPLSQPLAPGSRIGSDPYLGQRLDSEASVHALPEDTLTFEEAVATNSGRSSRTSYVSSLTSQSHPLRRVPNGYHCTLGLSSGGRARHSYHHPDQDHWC
T5 sequence (Q02410 whole entry): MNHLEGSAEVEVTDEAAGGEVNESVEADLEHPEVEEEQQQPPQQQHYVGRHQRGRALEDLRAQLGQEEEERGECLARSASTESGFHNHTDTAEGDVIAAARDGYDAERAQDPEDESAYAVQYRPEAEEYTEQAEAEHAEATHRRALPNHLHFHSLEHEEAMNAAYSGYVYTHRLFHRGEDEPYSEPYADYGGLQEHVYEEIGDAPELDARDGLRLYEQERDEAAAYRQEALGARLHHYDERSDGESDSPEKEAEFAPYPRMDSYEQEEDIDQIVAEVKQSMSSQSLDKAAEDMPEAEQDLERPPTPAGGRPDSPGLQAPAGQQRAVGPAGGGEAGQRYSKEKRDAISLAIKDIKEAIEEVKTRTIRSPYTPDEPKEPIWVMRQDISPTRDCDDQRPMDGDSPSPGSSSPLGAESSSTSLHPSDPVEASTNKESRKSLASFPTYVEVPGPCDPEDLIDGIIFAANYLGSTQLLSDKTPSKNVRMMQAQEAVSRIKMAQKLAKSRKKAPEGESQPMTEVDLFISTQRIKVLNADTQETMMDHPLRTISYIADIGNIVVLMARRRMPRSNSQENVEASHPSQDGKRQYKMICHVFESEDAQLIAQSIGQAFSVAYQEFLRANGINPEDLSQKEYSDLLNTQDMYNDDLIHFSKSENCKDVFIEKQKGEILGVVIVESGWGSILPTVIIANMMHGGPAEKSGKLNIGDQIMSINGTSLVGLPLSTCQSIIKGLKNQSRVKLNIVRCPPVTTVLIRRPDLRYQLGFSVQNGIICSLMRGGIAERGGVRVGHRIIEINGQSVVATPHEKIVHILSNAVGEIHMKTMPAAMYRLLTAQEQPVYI
Chain of Beta-galactosidase (Q8VNN2 whole entry): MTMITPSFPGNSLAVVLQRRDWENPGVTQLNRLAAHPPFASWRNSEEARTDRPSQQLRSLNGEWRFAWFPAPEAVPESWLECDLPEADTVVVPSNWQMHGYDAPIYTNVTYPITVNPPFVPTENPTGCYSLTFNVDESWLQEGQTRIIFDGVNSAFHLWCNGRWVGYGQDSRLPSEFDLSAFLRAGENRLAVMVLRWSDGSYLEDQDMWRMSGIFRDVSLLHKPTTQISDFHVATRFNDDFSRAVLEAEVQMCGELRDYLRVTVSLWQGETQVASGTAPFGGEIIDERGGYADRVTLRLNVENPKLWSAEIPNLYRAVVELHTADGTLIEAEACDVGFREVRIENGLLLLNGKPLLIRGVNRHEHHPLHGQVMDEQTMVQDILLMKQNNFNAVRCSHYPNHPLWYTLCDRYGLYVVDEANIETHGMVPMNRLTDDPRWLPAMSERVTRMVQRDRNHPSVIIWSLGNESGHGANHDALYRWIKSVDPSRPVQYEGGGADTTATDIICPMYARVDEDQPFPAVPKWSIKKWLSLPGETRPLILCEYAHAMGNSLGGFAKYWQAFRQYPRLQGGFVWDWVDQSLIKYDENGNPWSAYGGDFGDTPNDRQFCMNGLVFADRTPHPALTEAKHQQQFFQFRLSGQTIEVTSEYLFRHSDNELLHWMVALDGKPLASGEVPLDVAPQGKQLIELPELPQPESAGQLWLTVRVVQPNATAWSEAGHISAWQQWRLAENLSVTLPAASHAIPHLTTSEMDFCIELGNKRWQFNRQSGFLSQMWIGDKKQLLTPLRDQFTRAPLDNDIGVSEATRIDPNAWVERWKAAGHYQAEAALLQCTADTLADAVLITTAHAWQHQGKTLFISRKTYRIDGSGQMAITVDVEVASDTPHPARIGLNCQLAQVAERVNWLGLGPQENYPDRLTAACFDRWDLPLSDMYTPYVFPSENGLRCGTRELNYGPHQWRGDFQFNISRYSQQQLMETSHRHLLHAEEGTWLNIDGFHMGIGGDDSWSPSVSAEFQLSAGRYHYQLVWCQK
Chain of Melanin-concentrating hormone receptor 1 (Q99705 whole entry): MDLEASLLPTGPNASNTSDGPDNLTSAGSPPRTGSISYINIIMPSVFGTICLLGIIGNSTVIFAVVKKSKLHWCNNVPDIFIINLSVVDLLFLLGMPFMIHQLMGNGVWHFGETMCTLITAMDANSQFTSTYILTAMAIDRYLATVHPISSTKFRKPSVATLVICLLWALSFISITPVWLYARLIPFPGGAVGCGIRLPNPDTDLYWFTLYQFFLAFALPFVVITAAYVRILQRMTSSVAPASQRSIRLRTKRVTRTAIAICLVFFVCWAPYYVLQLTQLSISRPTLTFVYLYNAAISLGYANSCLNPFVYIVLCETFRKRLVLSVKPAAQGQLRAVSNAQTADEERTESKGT

Cc1cc(Br)c(-c2ccc(/C=C3/NC(=S)NC3=O)o2)cc1C
Ki [1]: 3.19 µM (active)

CCC(=O)Nc1nc2ccccc2n1Cc1ccc(Cl)cc1
EC50 [2]: 1.1 µM (active)
CC50 [3]: 33.9 µM (active)
EC50 [4]: 8.28 µM (active)
IC50 (Interleukin-8 [5]): > 25 µM (inactive)
IC50 (Interleukin-8 [6]): > 25 µM (inactive)
IC50 (Tumor necrosis factor): > 20 µM (inactive)
CC50 [7]: > 40 µM (active)
IC50 [8]: 12.3 µM (active)
CC50 [9]: > 20 µM (active)
CC50 [10]: 11 µM (active)
IC50 [11]: 15.8 µM (active)
IC50 (cells [12]): 0.29 µM (active)
IC50 (HEK293 [13]): > 20 µM (inactive)

CN(C)C1=NC[C@H](Cc2ccccc2)N1CC1CCC(C(C)(C)C)CC1 (stereo partly drawn)
IC50 [14]: 7.86 µM (active)
IC50 [15]: 10.6 µM (not active)

CC(=O)C1=C(O)C(=O)N(Cc2ccccc2)C1c1ccco1 (stereo not drawn)
IC50 (Bcl-2-like protein 10): > 100 µM (inactive)

Cc1oc2cc3c(C(=O)OCCN(C)C)c(C)oc3cc2c1C(=O)OCCN(C)C
EC50 (HEK293 [16]): 0.781 µM (active)
EC50 [17]: > 8 µM (not active)
EC50 (HEK293 [18]): 13.9 µM (inactive)
EC50 (HEK293 [19]): 0.11 µM (active)

Cc1[nH]c2ccccc2c1C1=CC(=O)C=CC1=O
IC50 (Beta-galactosidase): > 66.6 µM (inactive)
IC50 (Hexokinase HKDC1): 3.4 µM (active)
IC50 (Genome polyprotein): 17.7 µM (active)
IC50 [20]: 3.46 µM (active)
IC50 (Beta Lactamase): 19.9 µM (inactive)
CC50 [21]: > 40 µM (active)

CC(C)(C)S(=O)(=O)/C(C#N)=C/c1cccn1S(=O)(=O)c1ccccc1
IC50 [22]: > 50 µM (inactive)

COc1ccc(CNC(=O)COC(=O)c2cccc3ccccc23)cc1
IC50 [23]: 26.4 µM (active)
IC50 [24]: > 56.8 µM (inactive)

CCOc1ccc(CCOc2c(Cl)cnn(-c3ccccc3)c2=O)cc1OCC
IC50 [25]: > 20 µM (inactive)

Oc1c(/C=N/c2ccccn2)sc2ccccc12
EC50 [26]: 1.8 µM (active)
EC50 [27]: 11.5 µM (active)
IC50 [28]: 1.64 µM (active)
IC50 [29]: 10.2 µM (active)

O=C(N/N=C/c1cn(-c2ccccc2)nc1-c1cc2ccccc2o1)c1cccnc1
EC50 [30]: > 40 µM (inactive)
EC50 [31]: > 67.5 µM (inactive)
EC50 (cells [32]): > 67.5 µM (inactive)
